Experimental findings from US11077210B2, “Near-infrared fluorescent contrast bioimaging agents and methods of use thereof” (Beth Israel Deaconess Medical Center, priority 2013, dated 2021) are described below.

The subject of one experiment is Peyer's patches. The experiment is described as follows: Peyer's patches NIR fluorescence imaging (FLARE). It counts as in vivo. As to conditions: 250 g male rat, 100 nmol intravenously, 4 hours; Channel 2 (800 nm). The method, then:
(§1) Absorbance and fluorescence emission spectra were measured using fiber optic HR2000 absorbance (200-1100 nm) and USB2000FL fluorescence (350-1000 nm) spectrometers (Ocean Optics, Dunedin, Fla.). Excitation was provided by a 532 nm green laser pointer (Opcom Inc., Xiamen, China) set to 5 mW, a 655 nm red laser pointer (Opcom Inc., Xiamen, China) set to 5 mW, or a 770 nm NIR laser diode light source (Electro Optical Components, Santa Rosa, Calif.) set to 10 mW and coupled through a 300 μm core diameter, NA 0.22 fiber (Fiberguide Industries, Stirling, N.J.). In silico calculations of the partition coefficient (log D at pH 7.4) and surface molecular charge and hydrophobicity were calculated using MarvinSketch 5.2.1 by taking major microspecies at pH 7.4 (ChemAxon, Budapest, Hungary). NIR Fluorescence Imaging System The dual-NIR channel FLARE′ imaging system has been described in detail previously (26-28). […] Color and two independent NIR fluorescence emission images (≈700 nm for Channel 1 and ≈800 nm for Channel 2) were acquired simultaneously with custom software at rates up to 15 Hz over a 15 cm diameter field of view. NIR fluorescence from Channel 1 was pseudo-colored in red and NIR fluorescence from Channel 2 was pseudo-colored in lime green prior to merger with the color video image. […] Animal Models and Intraoperative NIR Fluorescence Imaging […]

Experiment [1] deals with neuroendocrine tumors (insulinoma). The experiment is described as follows: Neuroendocrine tumor NIR fluorescence imaging (FLARE). It counts as in vivo. The conditions noted are these: 25 g male insulinoma-bearing mouse, 140 nmol intravenously, 1 hour, pancreas imaged; Channel 1 (700 nm) or Channel 2 (800 nm). On the procedure: as §1
A further experiment deals with ovaries. The experiment is described as follows: Ovary NIR fluorescence imaging (FLARE). It counts as in vivo. As to conditions: 25 g female mouse, 25 nmol intravenously, 4 hours; Channel 1 (700 nm) or Channel 2 (800 nm). On the procedure: as §1
A further experiment concerns prostate. Briefly: Prostate NIR fluorescence imaging (FLARE). Type of experiment: in vivo. The conditions noted are these: 25 g male mouse, 25 nmol intravenously, 4 hours; Channel 1 (700 nm) or Channel 2 (800 nm). The method, then:
as §1

The next experiment relates to gallbladder. The experiment is described as follows: Gallbladder NIR fluorescence imaging (FLARE). It counts as in vivo. As to conditions: 25 g male mouse, 25 nmol intravenously, 4 hours; Channel 1 (700 nm) or Channel 2 (800 nm). On the procedure: as §1
For the next experiment, the system named is SLN. Briefly: Sentinel lymph node (SLN) NIR fluorescence imaging (FLARE). It counts as in vivo. As to conditions: 35 kg female pig, 5 nmol subcutaneously into bowel, 5 min; Channel 1 (700 nm) or Channel 2 (800 nm). The method, then: as §1
The next experiment has as its system brain vasculature. Briefly: Brain vasculature NIR fluorescence imaging (FLARE). Type of experiment: in vivo. The conditions noted are these: 25 g male mouse, 25 nmol intravenously, 4 hours; Channel 1 (700 nm). The method, then: as §1
A further experiment has as its system CSF. Briefly: CSF NIR fluorescence imaging (FLARE). Type of experiment: in vivo. As to conditions: 35 kg female pig, 5 μmol intravenously, 4 hours; Channel 1 (700 nm) or Channel 2 (800 nm). On the procedure: as §1
The test system of another experiment is pan lymph nodes. The experiment is described as follows: Pan lymph node NIR fluorescence imaging (FLARE). The conditions noted are these: 250 g male rat, 20 nmol intravenously, 4 hours; Channel 1 (700 nm) or Channel 2 (800 nm). It counts as in vivo. On the procedure:
as §1

The next experiment has as its system spinal cartilage. The experiment is described as follows: Cartilage NIR fluorescence imaging (FLARE). It counts as in vivo. As to conditions: 35 kg female pig, 5 μmol intravenously, 4 hours, Channel 1 (700 nm) or Channel 2 (800 nm). The method, then: as §1
The test system of the next experiment is stem cells. The experiment is described as follows: Stem cell tracking: NIR fluorescence microscopy of labelled cells. As to conditions: 2 μM, 30 min incubation at 37° C., fixed in 2% paraformaldehyde, 10 μm sections; fluorescence microscope Channel 1 (700 nm) or Channel 2 (800 nm). It counts as cell-based.
A further experiment relates to bone (rib cage). The experiment is described as follows: Bone NIR fluorescence imaging (FLARE). Type of experiment: in vivo. The conditions noted are these: 35 kg female pig, 5 μmol intravenously, 4 hours, Channel 1 (700 nm) or Channel 2 (800 nm). The method, then: as §1

`CC1(C)C(/C=C/C=C/C=C/C=C2/N(CCC[N+](C)(C)C)c3ccccc3C2(C)C)=[N+](CCC[N+](C)(C)C)c2ccccc21` [AL30]: in the experiment on Peyer's patches, the “NIR fluorescence contrast of the Peyer's patches” value is “highlighted with high contrast”.
As for `CN(C)c1ccc2nc3ccc(=[N+](C)C)cc-3oc2c1` [ESS61], the “NIR fluorescence contrast of the tumors” value in experiment [1] is “highlighted with high contrast”.
For the compound `CCN(CC)c1ccc(/C=C/C2=CC(/C=C/c3ccc(N(CC)CC)cc3O)=[O+][B-](F)(F)O2)c(O)c1` [PS62], the “NIR fluorescence contrast of the ovaries” value in the experiment with ovaries is listed as “highlighted with high contrast”. Moreover, the “NIR fluorescence contrast of the prostate” value in the experiment with prostate was “highlighted with high contrast”. Further, the “NIR fluorescence contrast of the gallbladder” value with gallbladder is recorded as “highlighted with high contrast”.
As for `CCN1/C(=C/C=C/C=C/C2=[N+](CC)c3ccc4ccccc4c3C2(C)C)C(C)(C)c2c1ccc1ccccc21` [MHI86], the “NIR fluorescence contrast of the SLN” value in the experiment on SLN is on record as “highlighted with high contrast”.
On to `CNCCCN1/C(=C/C=C/C=C/c2sc3cc(O)ccc3[n+]2CCCNC)Sc2cc(O)ccc21` [ZK214], for which the “NIR fluorescence contrast of the brain vasculature” value in the experiment on brain vasculature is on record as “highlighted with high contrast”.
As for `CN1/C(=C/C=C/C=C/C=C/C2=[N+](C)c3ccccc3C2(C)C)C(C)(C)c2ccccc21` [AL20], in [1], the “NIR fluorescence contrast of the tumors” value was “highlighted with high contrast”. For the same compound, the “NIR fluorescence contrast of the CSF” value with CSF is listed as “highlighted with high contrast”.
`CC1(C)C(/C=C/C2=C(Oc3ccc(CCC(=O)O)cc3)C(=C/C=C3/N(CCC[N+](C)(C)C)c4ccccc4C3(C)C)/CCC2)=[N+](CCC[N+](C)(C)C)c2ccccc21` [MM25]: in the experiment on pan lymph nodes, the “NIR fluorescence contrast of all lymph nodes” value was “highlighted with high contrast”. In the experiment on SLN, the “NIR fluorescence contrast of the SLN” value is listed as “highlighted with high contrast”.
In the case of `C[N+](C)(C)CCCN1/C(=C/C=C/C=C/c2sc3cc(O)ccc3[n+]2CCC[N+](C)(C)C)Sc2cc(O)ccc21` [SP56], in the experiment with spinal cartilage, the “NIR fluorescence contrast of the cartilage” value is “highlighted with high contrast”.
Take `CCN1/C(=C/C=C2\CCCC(/C=C/C3=[N+](CC)c4ccccc4C3(C)C)=C2Oc2ccc(CCN)cc2)C(C)(C)c2ccccc21` [PS126]: the “NIR fluorescence contrast of the cytoplasm of cell” value with stem cells is on record as “highlighted with high contrast”.
Still for that read-out and setting: the same measure for `CCN1/C(=C/C=C(/C=C/C2=[N+](CC)c3ccccc3C2(C)C)Oc2ccc(CCN)cc2)C(C)(C)c2ccccc21` [PS127]: “highlighted with high contrast”.
In the case of `CC1(C)C(/C=C/C2=C(Sc3ccc(CCN)cc3)C(=C/C=C3/N(CCC[N+](C)(C)C)c4ccc(S(=O)(=O)O)cc4C3(C)C)/CCC2)=[N+](CCC[N+](C)(C)C)c2ccc(S(=O)(=O)O)cc21` [LN50], the “NIR fluorescence contrast of the cartilage” value with spinal cartilage was “highlighted with high contrast”.
Regarding `CC1(C)C(/C=C/C(C/C=C2/N(CCCP(=O)(O)O)c3ccc(S(=O)(=O)[O-])cc3C2(C)C)c2ccc(CCC(=O)O)cc2)=[N+](CCCP(=O)(O)O)c2ccc(S(=O)(=O)O)cc21` (stereo not shown) [P700SO3], in the experiment with bone (rib cage), the “NIR fluorescence contrast of the bone” value is recorded as “highlighted with high contrast”.
